Reference: patent US20240199558A1, “2,4,6-TRISUBSTITUTED 1,3,5-TRIAZINES AS MODULATORS OF CX3CR1” (ASTRAZENECA AB, priority 2022, published 2024)

Each compound was assayed against CX3CR1 (Homo sapiens (Human), UniProt P49238) (assay: hCX3CR1 [3H]-AZD8797 competitive binding assay (filter)). Settings: CHO-hCX3CR1 membranes, 2 nM [3H]-AZD8797.
Sequence of CX3CR1 (P49238 whole entry): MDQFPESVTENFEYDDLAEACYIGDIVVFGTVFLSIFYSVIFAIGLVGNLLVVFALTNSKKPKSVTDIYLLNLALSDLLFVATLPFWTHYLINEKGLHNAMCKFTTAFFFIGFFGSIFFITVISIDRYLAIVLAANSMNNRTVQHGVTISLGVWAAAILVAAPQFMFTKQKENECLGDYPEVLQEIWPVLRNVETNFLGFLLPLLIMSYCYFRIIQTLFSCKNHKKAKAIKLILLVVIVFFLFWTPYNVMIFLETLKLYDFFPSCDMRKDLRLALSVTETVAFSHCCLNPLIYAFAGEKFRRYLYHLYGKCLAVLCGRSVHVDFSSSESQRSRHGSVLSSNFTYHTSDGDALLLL
Experimental: hCX3CR1 [^3H]-AZD8797 Competitive Binding Assay (Filter)
CHO-hCX3CR1 membranes (9 μg per well) together with 2 nM [^3H]-AZD8797 and different concentrations of competitor compound were incubated in 25 mM HEPES (pH 7.4), 10 mM MgCl2, 1 mM CaCl2) and 0.5% BSA in a Corning polystyrene flat-bottom 96-well plate. The plate was incubated for 2 h at room temperature before free radioligand was separated from bound by vacuum filtration on to a Multiscreen HTS+HiFlow FB (Millipore) filter plate, using a Biomek FX (Beckman Coulter). The filter plate was washed in ice-cold 25 mM HEPES (pH 7.4), 5 mM MgCl2, 1 mM CaCl2) and 500 mM NaCl and dried at 50° C. for 1 h. Scintillation cocktail, Optiphase Supermix (PerkinElmer) was added to each well and the radioactivity was measured using a MicroBeta Trilux reader (PerkinElmer). The DMSO concentration was held constant at 1%.
With `CC(C)C[C@H](CO)Nc1nc(C[C@@H](C)c2c(F)cccc2F)nc(NS(C)(=O)=O)n1` (single isomer, unassigned) [Example 78, N-(4-((R*)-2-(2,6-Difluorophenyl)propyl)-6-(((R)-1-hydroxy-4-methylpentan-2-yl)amino)-1,3,5-triazin-2-yl)methanesulfonamide] the IC50 was 22 nM. Compound `CC(C)C[C@H](CO)Nc1nc(CC(C)c2c[nH]c3ncccc23)nc(NS(C)(=O)=O)n1` (stereo partly drawn) [Example 93, N-(4-(2-(1H-Pyrrolo[2,3-b]pyridin-3-yl)propyl)-6-(((R)-1-hydroxy-4-methylpentan-2-yl)amino)-1,3,5-triazin-2-yl)methanesulfonamide] has an IC50 of 209 nM. `COc1cccc(C(C)Cc2nc(N[C@@H](CO)CC(C)C)nc(NS(C)(=O)=O)n2)c1F` (stereo partly drawn) [Example 99, N-(4-(2-(2-Fluoro-3-methoxyphenyl)propyl)-6-(((R)-1-hydroxy-4-methylpentan-2-yl)amino)-1,3,5-triazin-2-yl)methanesulfonamide] showed an IC50 of 77 nM. With `CC(C)C[C@H](CO)Nc1nc(C[C@H](C)c2ccc(F)c(Cl)c2)nc(NS(C)(=O)=O)n1` (single isomer, unassigned) [Example 65, N-(4-((S*)-2-(3-Chloro-4-fluorophenyl)propyl)-6-(((R)-1-hydroxy-4-methylpentan-2-yl)amino)-1,3,5-triazin-2-yl)methanesulfonamide] the IC50 was 4200 nM. `CC(C)C[C@H](CO)Nc1nc(CC(C)c2ccc(C#N)c(F)c2)nc(NS(C)(=O)=O)n1` (stereo partly drawn) [Example 141, N-(4-(2-(4-Cyano-3-fluorophenyl)propyl)-6-(((R)-1-hydroxy-4-methylpentan-2-yl)amino)-1,3,5-triazin-2-yl)methanesulfonamide] gave an IC50 of 173 nM. Work on `CC(C)C[C@H](CO)Nc1nc(CC(C)c2ccc(-n3ccnn3)cc2)nc(NS(C)(=O)=O)n1` (stereo partly drawn) [Example 64, N-(4-(2-(4-(1H-1,2,3-Triazol-1-yl)phenyl)propyl)-6-(((R)-1-hydroxy-4-methylpentan-2-yl)amino)-1,3,5-triazin-2-yl)methanesulfonamide] yielded an IC50 of 302 nM. `Cc1ncc(C(C)Cc2nc(N[C@@H](CO)CC(C)C)nc(NS(C)(=O)=O)n2)cc1N` (stereo partly drawn) [Example 131, N-(4-(2-(5-Amino-6-methylpyridin-3-yl)propyl)-6-(((R)-1-hydroxy-4-methylpentan-2-yl)amino)-1,3,5-triazin-2-yl)methanesulfonamide] showed an IC50 of 639 nM. In the case of `CC(C)C[C@H](CO)Nc1nc(CC(c2ccccc2)C(F)(F)F)nc(NS(C)(=O)=O)n1` (stereo partly drawn) [Example 151, N-(4-(((R)-1-Hydroxy-4-methylpentan-2-yl)amino)-6-(3,3,3-trifluoro-2-phenylpropyl)-1,3,5-triazin-2-yl)methanesulfonamide], the IC50 is reported as 493 nM. Work on `COc1cccc(C(C)Cc2nc(N[C@@H](CO)CC(C)C)nc(NS(C)(=O)=O)n2)n1` (stereo partly drawn) [Example 166, N-(4-(((R)-1-Hydroxy-4-methylpentan-2-yl)amino)-6-(2-(6-methoxypyridin-2-yl)propyl)-1,3,5-triazin-2-yl)methanesulfonamide] yielded an IC50 of 726 nM. With `CC[C@@H](Cc1nc(N[C@@H](CO)CC(C)C)nc(NS(C)(=O)=O)n1)c1cccc(F)c1F` (single isomer, unassigned) [Example 48, N-(4-((S*)-2-(2,3-Difluorophenyl)butyl)-6-(((R)-1-hydroxy-4-methylpentan-2-yl)amino)-1,3,5-triazin-2-yl)methanesulfonamide] the IC50 was 309 nM. `CCOc1ccc([C@H](C)Cc2nc(N[C@@H](CO)CC(C)C)nc(NS(C)(=O)=O)n2)cn1` (single isomer, unassigned) [Example 27, N-(4-((R*)-2-(6-Ethoxypyridin-3-yl)propyl)-6-(((R)-1-hydroxy-4-methylpentan-2-yl)amino)-1,3,5-triazin-2-yl)methanesulfonamide] showed an IC50 of 138 nM. With `CC(C)C[C@H](CO)Nc1nc(CC(C)c2cccc(F)c2)nc(NS(C)(=O)=O)n1` (stereo partly drawn) [Example 58, N-(4-(2-(3-Fluorophenyl)propyl)-6-(((R)-1-hydroxy-4-methylpentan-2-yl)amino)-1,3,5-triazin-2-yl)methanesulfonamide] the IC50 was 105 nM. With `CC(C)C[C@H](CO)Nc1nc(CC(C)c2cc(O)c3c(c2)CCCC3)nc(NS(C)(=O)=O)n1` (stereo partly shown) [Example 104] the IC50 was 38 nM. For `CC(C)C[C@H](CO)Nc1nc(C[C@H](C)c2c(F)cc(F)cc2F)nc(NS(C)(=O)=O)n1` (single isomer, unassigned) [Example 39, N-(4-(((R)-1-Hydroxy-4-methylpentan-2-yl)amino)-6-((S*)-2-(2,4,6-trifluorophenyl)propyl)-1,3,5-triazin-2-yl)methanesulfonamide], the IC50 was greater than 10000 nM. `CC(C)C[C@H](CO)Nc1nc(CC(C)c2cccc(Cl)c2)nc(NS(C)(=O)=O)n1` (stereo partly drawn) [Example 72, N-(4-(2-(3-Chlorophenyl)propyl)-6-(((R)-1-hydroxy-4-methylpentan-2-yl)amino)-1,3,5-triazin-2-yl)methanesulfonamide] was tested, and the IC50 was 340 nM. Work on `CC[C@H](Cc1nc(N[C@@H](CO)CC(C)C)nc(NS(C)(=O)=O)n1)c1cccc(F)c1F` (single isomer, unassigned) [Example 47, N-(4-((R*)-2-(2,3-Difluorophenyl)butyl)-6-(((R)-1-hydroxy-4-methylpentan-2-yl)amino)-1,3,5-triazin-2-yl)methanesulfonamide] yielded an IC50 of 63 nM. `CC(C)C[C@H](CO)Nc1nc(C[C@H](C)c2ccnc(F)c2)nc(NS(C)(=O)=O)n1` (single isomer, unassigned) [Example 90, N-(4-((S*)-2-(2-Fluoropyridin-4-yl)propyl)-6-(((R)-1-hydroxy-4-methylpentan-2-yl)amino)-1,3,5-triazin-2-yl)methanesulfonamide] showed an IC50 of 1700 nM. In the case of `CC(C)C[C@H](CO)Nc1nc(CC(C)c2cnc3c(ccn3C)c2)nc(NS(C)(=O)=O)n1` (stereo partly drawn) [Example 117, N-(4-(((R)-1-Hydroxy-4-methylpentan-2-yl)amino)-6-(2-(1-methyl-1H-pyrrolo[2,3-b]pyridin-5-yl)propyl)-1,3,5-triazin-2-yl)methanesulfonamide], the IC50 is reported as 78 nM. Compound `CC(C)C[C@H](CO)Nc1nc(CC(C)c2ccc(C(C)(F)F)cc2)nc(NS(C)(=O)=O)n1` (stereo partly drawn) [Example 71, N-(4-(2-(4-(1,1-Difluoroethyl)phenyl)propyl)-6-(((R)-1-hydroxy-4-methylpentan-2-yl)amino)-1,3,5-triazin-2-yl)methanesulfonamide] has an IC50 of 331 nM. Compound `CC(C)C[C@H](CO)Nc1nc(C[C@@H](C)c2ccc(F)c(Cl)c2)nc(NS(C)(=O)=O)n1` (single isomer, unassigned) [Example 66, N-(4-((R*)-2-(3-Chloro-4-fluorophenyl)propyl)-6-(((R)-1-hydroxy-4-methylpentan-2-yl)amino)-1,3,5-triazin-2-yl)methanesulfonamide] has an IC50 of 222 nM. For `CC(C)C[C@H](CO)Nc1nc(C[C@H](C)c2ccc(Cl)c(F)c2F)nc(NS(C)(=O)=O)n1` (single isomer, unassigned) [Example 33, N-(4-((S*)-2-(4-Chloro-2,3-difluorophenyl)propyl)-6-(((R)-1-hydroxy-4-methylpentan-2-yl)amino)-1,3,5-triazin-2-yl)methanesulfonamide], the IC50 was 384 nM. For `CC(C)C[C@H](CO)Nc1nc(CC(C)c2cc(F)c(CO)c(F)c2)nc(NS(C)(=O)=O)n1` (stereo partly drawn) [Example 110, N-(4-(2-(3,5-Difluoro-4-(hydroxymethyl)phenyl)propyl)-6-(((R)-1-hydroxy-4-methylpentan-2-yl)amino)-1,3,5-triazin-2-yl)methanesulfonamide], the IC50 was 34 nM.
